Measured values reported in publication PMC6010131, “Antileishmanial activity of sulphonamide nanoemulsions targeting the β-carbonic anhydrase from Leishmania species” (Journal of Enzyme Inhibition and Medicinal Chemistry, 2018).
Values after ≈ are worked out from the molar mass of the structure shown. Marks after values point to notes of the source that are not given here.

What was measured:
[1] = system: L. donovani; design: method as in PMID 25825339; details: against L. donovani; cited from earlier work
[2] = design: method as in PMID 25825339; details: cited from earlier work
[3] = Cytotoxic assay (MTT); type: cell-based; details: mouse, RAW 264.7 macrophages
Protocol: RAW 264.7 macrophages were obtained from the National Institute of Metrology, Quality and Technology (Inmetro, Rio de Janeiro, Brazil) and maintained in DMEM medium supplemented with 10% FBS at 37 °C in a 5% controlled CO2 atmosphere. Cell maintenance was performed every 48–72 h, time necessary for cells to achieve confluent monolayers.
Sulphonamide NEs cytotoxicity was performed using tetrazolium dye MTT colorimetric assay. RAW 264.7 macrophages were harvest after confluent monolayer achievement. The cells were washed twice with PBS and a cellular suspension of 10^6 cells/ml was prepared in fresh DMEM culture medium. Aliquots of 100 µl of the cellular suspension were placed into polystyrene 96-well plates, and then incubated at 37 °C in a 5% CO2 atmosphere for 6 h to allow for adherence of macrophages. After this period, the adherent cells were subjected to treatment with several concentrations of the sulphonamide NEs (1–128 µM), and then incubated for additional 48 h. […] Macrophage viability was determined after formazan crystals solubilisation with DMSO followed by the absorbance measurement at 570 nm using a SpectraMax M5 spectrophotometer (Molecular Devices, Los Angeles, CA). The 50% cytotoxic concentrations were calculated by regression analysis using Microsoft Excel 2013 software.

[4] = system: L. infantum MHOM/BR/1974/PP75 promastigotes; assay: Antileishmanial microdilution assay (resazurin), promastigotes; type: cell-based, Leishmania infantum
Protocol: (§1) Leishmania (infantum MHOM/BR/1974/PP75 and L. amazonensis IFLA/BR/1967/PH8 were donated by the Leishmania Type Culture Collection (LTCC) of Oswaldo Cruz Institute/Fiocruz (Rio de Janeiro, Brazil). […] The antileishmanial activity of the sulphonamide NEs was evaluated by the microdilution technique. […] L. amazonensis and L. infantum promastigote forms were harvest at late log phase of growth (96 h), washed twice with PBS and resuspended in fresh culture medium to a final concentration of 5 × 10^6 parasites/ml. […] The minimal inhibitory concentration (MIC) was determined as the lowest concentration capable of inhibiting in vitro growth of the parasites. […] The selective index (SI) for promastigote forms of L. amazonensis and L. infantum was calculated by the ratio between the CC50 for RAW 264.7 macrophages and the IC50 for the parasites.

[5] = system: L. amazonensis IFLA/BR/1967/PH8 promastigotes; assay: as above; type: cell-based, Leishmania amazonensis
Protocol: as §1

[6] = Haemolytic assay; type: cell-based, Human; details: human, human erythrocytes (suspension in PBS), read-out: Haemolysis (%)
Protocol: (§2) Haemolytic activity was evaluated as described previously by Ishnava and Shah with a slight modification. Human erythrocytes from healthy individuals were collected in vacuum tubes containing EDTA as anti-coagulant. The erythrocytes were harvested by centrifugation for 10 m at 2500 rpm at 20 °C, and washed three times in PBS. To the pellet, PBS was added to yield a 10% (v/v) erythrocytes/PBS suspension. The 10% suspension was then diluted 1:10 in PBS. Aliquots of 100 µl of erythrocytes suspension was added, in triplicate, to 100 µl of a two-fold dilution series of sulphonamides NEs and amphotericin B (at concentrations of 128, 64, 32, 16, 8, 4, 2, and 1 µM, respectively, in the same buffer) in microtubes. Negative and positive controls were performed by replacing drug dilution with PBS or with 200 µl of […] for the total haemolysis, respectively. The tubes were incubated for 1 h at 37 °C and then centrifuged for 10 min at 2000 rpm at 20 °C. From the supernatant fluid, 150 µl was transferred to a flat-bottomed microtiter plate, and the absorbance was measured spectrophotometrically at 540 nm. Five concentrations are required for HC50 calculation. The following formula was used to find out the percentage of haemolytic activity: [A540 treated sample − A540 of buffer)/(A540 of Triton X-100 − A540 of buffer)] × 100.

[7] = system: Human erythrocytes; assay: Haemolytic assay; type: cell-based; details: human erythrocytes, 1 h, 37 °C
Protocol: as §2

[8] = Dissolution of sulphonamides in clove oil; type: physicochemical; details: concentration of 5 mg/ml
Protocol: The oil-in-water (O/W) NEs were prepared by high-energy method using an ultrasound processor (Hielscher model UP100H, Hielscher GmbH, Berlin, Germany), according to the method descripted by Senna et al.[31]. Oil phase was prepared by sulphonamides dissolution in the clove oil. An amount of 5 mg of drug was weighted in a microtube and 1 ml of clove oil was added. The tube was agitated for 1 min for obtaining of the drug solution (5 mg/ml). Aqueous phase was prepared by adding 1 g of Pluronic F127® in 8 g of water. Then 1 ml of oil phase (drug dissolved in clove oil) was added to 9 ml of aqueous phase (Pluronic F127 in water) under constant ultrasound homogenisation (amplitude 80%, continuous cycle no. 1) during 5 min in an ice bath at 5 °C to prevent heating of the dispersion. A transparent NE was obtained at a concentration of 500 µg/ml.
The NEs were produced with 10% of oil phase. NEs were prepared also without the drug in order to evaluate the stability, droplet size and PDI. […] Phase separation and precipitation of the drug were not observed, and the NE was considered stable in the concentration of up to 500 µg/ml.

[9] = Leishmania infantum, L. infantum promastigotes, 120 h
[10] = Leishmania amazonensis, L. amazonensis promastigotes, 120 h

For `C[C@@H]1[C@H](O)[C@@H](C)/C=C/C=C/C=C/C=C/C=C/C=C/C=C/[C@H](O[C@@H]2O[C@H](C)[C@@H](O)[C@H](N)[C@@H]2O)C[C@@H]2O[C@](O)(C[C@@H](O)C[C@@H](O)[C@H](O)CC[C@@H](O)C[C@@H](O)CC(=O)O[C@H]1C)C[C@H](O)[C@H]2C(=O)O` [AMP, amphotericin B], the IC50 [1] is listed as 0.214 ± 0.06 µg/mL (≈ 0.232 µM), the haemotoxicity [2] is listed as 69.8% and the CC50 at 48 h [3] is listed as 1070 ± 1490 nM. The “IS50 (selectivity index = CC50/IC50)” value ([4]; CC50 RAW 264.7 / IC50 L. infantum) was 1.59 ± 0.01^d, the IC50 [4, 9] was 670 ± 100 nM and the IC90 [4, 9] was 1010 ± 30 nM. For the same molecule, the MIC ([4]; Leishmania infantum, L. infantum promastigotes, 120 h, 26 °C, read-out: MIC (minimum inhibitory concentration)) was 4 µM (≈ 3.7 µg/mL), the “IS50 (selectivity index = CC50/IC50)” value ([5]; CC50 RAW 264.7 / IC50 L. amazonensis) was 1.78 ± 0.01^b and the IC50 [5, 10] was 610 ± 10 nM. For the same molecule, the IC90 [5, 10] was 1230 ± 230 nM, the MIC ([5]; Leishmania amazonensis, L. amazonensis promastigotes, 120 h, 26 °C, read-out: MIC (minimum inhibitory concentration)) was 4 µM (≈ 3.7 µg/mL) and the hemolysis at 1 h, 2 µM ([6]; 2 µM) was 1.18 ± 0.31%. The hemolysis at 1 h, 4 µM ([6]; 4 µM) was 2.01 ± 0.02%, the hemolysis at 1 h, 8 µM ([6]; 8 µM) was 2.09 ± 0.15% and the hemolysis at 1 h, 16 µM ([6]; 16 µM) was 20.8 ± 0.5%. For the same molecule, the hemolysis at 1 h, 32 µM ([6]; 32 µM) was 57.8 ± 6.7%, the hemolysis at 1 h, 64 µM ([6]; 64 µM) was 75.7 ± 5.24% and the hemolysis at 1 h, 128 µM ([6]; 128 µM) was 100%. For the same molecule, the hemolysis at 1 h, 256 µM ([6]; 256 µM) was 100% and the HC50 [7] was 27.93 ± 1.71^b µM.

For `NS(=O)(=O)c1ccc(NC(=O)Cc2ccc(Cl)cc2)c(F)c1` [Sulphonamide 3F], the “Dissolution in clove oil” value [8] was “easily dissolved”.

With `NS(=O)(=O)c1ccc(NC(=O)Cc2ccccc2Br)c(F)c1` [Sulphonamide 3G] the “Dissolution in clove oil” value [8] was “easily dissolved”.

For `NS(=O)(=O)c1ccc(CCNC(=O)Cc2ccccc2Br)cc1` [Sulphonamide 3W], the “Dissolution in clove oil” value [8] was “easily dissolved”.

With `NS(=O)(=O)c1nnc(NC(=O)Cc2ccc(Cl)cc2)s1` [Sulphonamide 5B] the “Dissolution in clove oil” value [8] was “easily dissolved”.

In the case of `NS(=O)(=O)c1nnc(NC(=O)Cc2ccccc2Br)s1` [Sulphonamide 5C], the “Dissolution in clove oil” value [8] is reported as “easily dissolved”.

With `COc1ccc(CC(=O)Nc2nnc(S(N)(=O)=O)s2)cc1` [Sulphonamide 5D] the “Dissolution in clove oil” value [8] was “easily dissolved”.
